Consider 26 compounds from patent US8338431B2, “Phosphodiesterase inhibitors” (Leo Pharma A/S, priority 2007, dated 2012).

Like-named read-outs stand apart in the source and are kept apart here.

Usually IC50 stands for the concentration needed to halve the response being measured.

Assay [1] addresses Human recombinant PDE4 (Genbank accession no NM—006203) (Homo sapiens, UniProt Q08499). The experiment in a line: PDE4 Assay (SPA, cleavage of cAMP). It is filed as biochemical. As for the experimental part:
Human recombinant PDE4 (Genbank accession no NM_006203) was incubated for 1 hour, with the test compound at concentrations up to 10 μM, with cAMP (1×10^-5M), and with a low amount (0.021 MBq) of radioactively labelled cAMP. At the end of the incubation, the cleavage of the substrate was evaluated by the binding of the AMP product to SPA beads, which generate […] when bound to the radioactive tracer. The AMP product inhibited the binding of the radioactive tracer to the beads, and the luminescent signal was competed. The results were calculated as the molar concentrations resulting in 50% inhibition of the substrate cleavage compared to controls samples, and are expressed as IC50 (M).

Assay [2] relates to TNF-α release from human peripheral blood mononuclear cells (PBMC). The experiment in a line: TNF-α Release in LPS stimulated PBMC. The assay is classed as cell-based. Particulars: 30 minutes pre-incubation, stimulated 18 hours with lipopolysaccharide, TNF-α in supernatant by enzyme immunoassay. As for the experimental part: Human peripheral blood mononuclear cells (PBMC) were isolated from buffy coats. The blood is mixed with saline at a ratio of 1:1, and the PBMC were isolated using Lymphoprep Tubes™ (Nycomed, Norway). The PBMC were suspended in RPMI1640 with 2% foetal calf serum (FCS), pen/strep and 2 mM L-glutamine at a concentration of […]. The cells were pre-incubated for 30 minutes with the test compounds in 96 well tissue culture plates and stimulated for 18 hours with lipopolysaccharide […] (Sigma). The level of TNF-α was measured in the culture supernatant by enzyme immunoassays using primary and secondary biotinylated antibodies from R&D systems. Results are expressed as IC50 values calculated from inhibition curves using as positive controls the secretion in LPS stimulated wells and as negative controls the secretion in unstimulated cells.

The mark [3] stands for this setting: human recombinant PDE4, 1 hour incubation, cAMP 1×10^-5M, test compound up to 10 μM, read-out: IC50 (PDE4).

Sequence of Human recombinant PDE4 (Genbank accession no NM—006203) (Q08499 1-673 isoform Q08499-2): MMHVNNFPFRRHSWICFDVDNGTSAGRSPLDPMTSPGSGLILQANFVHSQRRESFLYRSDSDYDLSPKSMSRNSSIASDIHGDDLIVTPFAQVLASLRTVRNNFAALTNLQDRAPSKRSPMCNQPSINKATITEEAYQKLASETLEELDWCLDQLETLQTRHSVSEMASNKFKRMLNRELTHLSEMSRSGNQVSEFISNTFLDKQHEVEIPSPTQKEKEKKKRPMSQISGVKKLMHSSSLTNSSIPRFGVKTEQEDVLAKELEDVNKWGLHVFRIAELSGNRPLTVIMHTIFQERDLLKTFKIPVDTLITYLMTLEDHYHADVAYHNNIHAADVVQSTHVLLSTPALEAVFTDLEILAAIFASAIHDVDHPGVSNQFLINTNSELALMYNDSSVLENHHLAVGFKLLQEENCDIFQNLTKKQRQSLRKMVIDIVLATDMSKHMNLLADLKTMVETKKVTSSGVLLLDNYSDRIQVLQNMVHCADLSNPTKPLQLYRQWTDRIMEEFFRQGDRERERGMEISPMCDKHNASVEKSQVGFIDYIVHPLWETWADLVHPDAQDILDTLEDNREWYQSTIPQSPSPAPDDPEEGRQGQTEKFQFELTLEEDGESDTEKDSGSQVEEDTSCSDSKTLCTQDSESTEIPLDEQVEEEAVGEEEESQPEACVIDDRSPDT

As to `COc1ccc(C(=O)Cc2c(Cl)cncc2Cl)c2c1OC1(CCOCC1)O2` [Compound 101, 2-(3,5-Dichloropyridine-4-yl)-1-(7-methoxy-2′,3′,5′,6′-tetrahydro-spiro[1,3-benzodioxole-2,4′-(4H)-pyran]-4-yl)ethanone], the IC50 in assay [1] (setting [3]) is 26 nM; in assay [2] it was 28 nM.

As to `COc1ccc(C(=O)Nc2c(Cl)cncc2Cl)c2c1OC1(CCOCC1)O2` [Compound 102, N-(3,5-Dichloropyridine-4-yl)-7-methoxy-2′,3′,5′,6′-tetrahydro-spiro[1,3-benzodioxole-2,4′-(4H)-pyran]-4-carboxamide], the IC50 in assay [1] (setting [3]) came to 41 nM; in assay [2], 88 nM.

`COc1ccc(C(=O)Cc2c(Cl)c[n+]([O-])cc2Cl)c2c1OC1(CCOCC1)O2` [Compound 103, 2-(3,5-Dichloro-1-oxido-pyridine-4-yl)-1-(7-methoxy-2′,5′,6′-tetrahydro-spiro[1,3-benzodioxole-2,4′-(4H)-pyran]-4-yl)ethanone]: the results for the IC50 in assay [1] (setting [3]) and in assay [2] were 26 nM and 23 nM, respectively.

As for `COc1ccc(C(=O)Cc2c(Cl)cncc2Cl)c2c1OC1(CCSC1)O2` (stereo not shown) [Compound 104, 2-(3,5-Dichloropyridine-4-yl)-1-(7-methoxy-4′,5′-dihydro-spiro[1,3-benzo-dioxole-2,3′-(2H)-thiophen]-4-yl)ethanone], the results for the IC50 in assay [1] (setting [3]) and in assay [2] were 10 nM and 44 nM, respectively.

Consider `COc1ccc(C(=O)Cc2c(Cl)cncc2Cl)c2c1OC1(CCNCC1)O2` [Compound 105, 2-(3,5-Dichloropyridine-4-yl)-1-(7-methoxy-spiro[1,3-benzodioxole-2,4′-piperidine]-4-yl)ethanone], for which the results for the IC50 in assay [1] and in assay [2] were 310 nM and 800 nM, respectively.

Regarding `COC(=O)N1CCC2(CC1)Oc1c(OC)ccc(C(=O)Cc3c(Cl)cncc3Cl)c1O2` [Compound 106, 2-(3,5-Dichloropyridine-4-yl)-1-(7-methoxy-1′-[methoxycarbonyl]-spiro[1,3-benzodioxole-2,4′-piperidine]-4-yl)ethanone], the values for the IC50 in assay [1] and in assay [2] were 127 nM and 158 nM, respectively.

Regarding `COc1ccc(C(=O)Cc2c(Cl)cncc2Cl)c2c1OC1(CCN(S(C)(=O)=O)CC1)O2` [Compound 107, 2-(3,5-Dichloropyridine-4-yl)-1-(7-methoxy-1′-[methylsulfonyl]-spiro[1,3-benzodioxole-2,4′-piperidine]-4-yl)ethanone], the IC50 in assay [1] (setting [3]) is 590 nM; in assay [2] it was 910 nM.

As for `COc1ccc(C(=O)Cc2c(Cl)cncc2Cl)c2c1OC1(CCN(C(C)=O)CC1)O2` [Compound 108, 2-(3,5-Dichloropyridine-4-yl)-1-(7-methoxy-1′-acetyl-spiro[1,3-benzodioxole-2,4′-piperidine]-4-yl)ethanone], the IC50 in assay [1] was 220 nM; in assay [2], 167 nM.

On to `COc1ccc(C(=O)Cc2c(Cl)cncc2Cl)c2c1OC1(CCSCC1)O2` [Compound 110, 2-(3,5-Dichloropyridine-4-yl)-1-(7-methoxy-2′,3′,5′,6′-tetrahydro-spiro[1,3-benzodioxole-2,4′-(4H)-thiopyran]-4-yl)ethanone], for which the IC50 in assay [1] (setting [3]) is 11 nM; in assay [2] it was 17 nM.

As for `COc1ccc(C(=O)Cc2c(Cl)cncc2Cl)c2c1OC1(CC[S+]([O-])CC1)O2` (stereo not shown) [Compound 111, 2-(3,5-Dichloropyridine-4-yl)-1-(7-methoxy-2′,3′,5′,6′-tetrahydro-spiro[1,3-benzodioxole-2,4′-(4H)-thiopyran 1′-oxide]-4-yl)ethanone], the IC50 in assay [1] (setting [3]) amounted to 18 nM; in assay [2], 19 nM.

Consider `COc1ccc(C(=O)Cc2c(Cl)cncc2Cl)c2c1OC1(CCS(=O)(=O)CC1)O2` [Compound 112, 2-(3,5-Dichloropyridine-4-yl)-1-(7-methoxy-2′,3′,5′,6′-tetrahydro-spiro[1,3-benzodioxole-2,4′-(4H)-thiopyran-1,1′-dioxide]-4-yl)ethanone], for which the IC50 in assay [1] (setting [3]) is 29 nM; in assay [2], 34 nM.

In the case of `COc1ccc(C(=O)Cc2c(Cl)c[n+]([O-])cc2Cl)c2c1OC1(CCS(=O)(=O)CC1)O2` [Compound 113, 2-(3,5-Dichloro-1-oxido-pyridine-4-yl)-1-(7-methoxy-2′,3′,5′,6′-tetrahydro-spiro[1,3-benzodioxole-2,4′-(4H)-thiopyran-1′,1′-dioxide]-4-yl)ethanone], the IC50 in assay [1] (setting [3]) is 53 nM; in assay [2], 82 nM.

Turning to `COc1ccc(C(=O)Cc2ccncc2Br)c2c1OC1(CCSCC1)O2` [Compound 114, 2-(3-bromopyridine-4-yl)-1-(7-methoxy-2′,3′,5′,6′-tetrahydro-spiro[1,3-benzodioxole-2,4′-(4H)-thiopyran]-4-yl)ethanone], the IC50 in assay [1] (setting [3]) came to 45 nM; in assay [2], 95 nM.

For `COc1ccc(C(=O)Cc2nccnc2Br)c2c1OC1(CCSCC1)O2` [Compound 115], the values for the IC50 in assay [1] (setting [3]) and in assay [2] were 1410 nM and 471 nM, respectively.

On to `COc1ccc(C(=O)Cc2cnccn2)c2c1OC1(CCSCC1)O2` [Compound 116, 2-(-pyrazin-2-yl)-1-(7-methoxy-2′,3′,5′,6′-tetrahydro-spiro[1,3-benzodioxole-2,4′-(4H)-thiopyran]-4-yl)ethanone], for which the IC50 in assay [1] (setting [3]) amounted to 1290 nM; in assay [2] it was 2940 nM.

For the compound `COc1ccc(C(=O)Cc2ccncc2)c2c1OC1(CCSCC1)O2` [Compound 117, 2-(-pyridin-4-yl-)-1-(7-methoxy-2′,3′,5′,6′-tetrahydro-spiro[1,3-benzo-dioxole-2,4′-(4H)-thiopyran]-4-yl)ethanone], the IC50 in assay [1] (setting [3]) amounted to 207 nM; in assay [2], 286 nM.

On to `COc1ccc(C(=O)Cc2ccnc3ccccc23)c2c1OC1(CCSCC1)O2` [Compound 118, 2-(quinolin-4-yl-)-1-(7-methoxy-2′,3′,5′,6′-tetrahydro-spiro[1,3-benzo-dioxole-2,4′-(4H)-thiopyran]-4-yl)ethanone], for which the IC50 in assay [1] (setting [3]) came to 1800 nM; in assay [2] it was 5520 nM.

Consider `COc1ccc(C(=O)Cc2c(Cl)cccc2Cl)c2c1OC1(CCSCC1)O2` [Compound 119, 2-(2,6-Dichloro-phenyl)-1-(7-methoxy-2′,3′,5′,6′-tetrahydro-spiro[1,3-benzo-dioxole-2,4′-(4H)-thiopyran]-4-yl)ethanone], for which the values for the IC50 in assay [1] (setting [3]) and in assay [2] were 71 nM and 508 nM, respectively.

For `COc1ccc(C(=O)Cc2ccccc2Cl)c2c1OC1(CCSCC1)O2` [Compound 120, 2-(2-chloro-phenyl)-1-(7-methoxy-2′,3′,5′,6′-tetrahydro-spiro[1,3-benzo-dioxole-2,4′-(4H)-thiopyran]-4-yl)ethanone], the IC50 in assay [1] (setting [3]) stood at 310 nM; in assay [2] it was 1250 nM.

Regarding `COc1ccc(C(=O)Cc2c(Cl)cncc2Cl)c2c1OCC1(COC1)CO2` [Compound 121, 2-(3,5-Dichloropyridin-4-yl)-1-{9-methoxy-spiro[2H-1,5-benzodioxepin-3(4H),3′-oxetane]-6-yl}ethanone], the 50% inhibitory concentration (IC50) in assay [1] (setting [3]) amounted to 52 nM; in assay [2], 64 nM.

Consider `COc1ccc(C(=O)Cc2c(Cl)c[n+]([O-])cc2Cl)c2c1OCC1(COC1)CO2` [Compound 122, 2-(3,5-Dichloro-1-oxido-pyridin-4-yl)-1-{9-methoxy-spiro[2H-1,5-benzodioxepin-3(4H),3′-oxetane]-6-yl}ethanone], for which the figures for the IC50 in assay [1] (setting [3]) and in assay [2] were 50 nM and 20 nM, respectively.

Take `COc1ccc(C(=O)Cc2c(Cl)cncc2Cl)c2c1OCC1(CO2)CSC1` [Compound 123, 2-(3,5-Dichloropyridin-4-yl)-1-{9-methoxy-spiro[2H-1,5-benzodioxepin-3(4H),3′-thietane]-6-yl}ethanone]: the values for the IC50 in assay [1] (setting [3]) and in assay [2] were 17 nM and 35 nM, respectively.

Turning to `COc1ccc(C(=O)Cc2c(Cl)cncc2Cl)c2c1OCC1(CO2)CS(=O)(=O)C1` [Compound 124, 2-(3,5-Dichloropyridin-4-yl)-1-{9-methoxy-spiro[2H-1,5-benzodioxepin-3(4H),3′-thietane-1′,1′-dioxide]-6-yl}ethanone], the IC50 in assay [1] (setting [3]) amounted to 104 nM; in assay [2] it was 135 nM.

As to `COc1ccc(C(=O)Cc2c(Cl)c[n+]([O-])cc2Cl)c2c1OCC1(CO2)CS(=O)(=O)C1` [Compound 125, 2-(3,5-Dichloropyridin-1-oxido-4-yl)-1-{9-methoxy-spiro[2H-1,5-benzodioxepin-3(4H),3′-thietane-1′,1′-dioxide]-6-yl}ethanone], the results for the IC50 in assay [1] (setting [3]) and in assay [2] were 200 nM and 135 nM, respectively.

As for `COc1ccc(C(=O)Cc2c(Cl)cncc2Cl)c2c1OCC1(CO2)OCCO1` [Compound 126, 2-(3,5-Dichloropyridin-4-yl)-1-{9-methoxy-spiro[2H-1,5-benzodioxepin-3(4H),2′-(1,3-dioxolane)]-6-yl}ethanone], the IC50 in assay [1] (setting [3]) worked out at 67 nM; in assay [2], 111 nM.

As to `COc1ccc(C(=O)Cc2c(Cl)cncc2Cl)c2c1OCC1(CCOCC1)CO2` [Compound 127, 2-(3,5-Dichloropyridin-4-yl)-1-{9-methoxy-spiro[2H-1,5-benzodioxepin-3(4H),4′-tetrahydropyran]-6-yl}ethanone], the IC50 in assay [1] (setting [3]) is 22 nM; in assay [2], 27 nM.
